Reference: article PMC2694132 (Cancer research, 2009)

What was measured:
Format in all cases: in vitro ADME
UGT1A9 = biological target: T1, UGT1A9 (Homo sapiens, UniProt O60656); test: SAHA glucuronidation, UGT1A9-overexpressing HEK293 cell homogenate
T1 sequence (O60656 26-530): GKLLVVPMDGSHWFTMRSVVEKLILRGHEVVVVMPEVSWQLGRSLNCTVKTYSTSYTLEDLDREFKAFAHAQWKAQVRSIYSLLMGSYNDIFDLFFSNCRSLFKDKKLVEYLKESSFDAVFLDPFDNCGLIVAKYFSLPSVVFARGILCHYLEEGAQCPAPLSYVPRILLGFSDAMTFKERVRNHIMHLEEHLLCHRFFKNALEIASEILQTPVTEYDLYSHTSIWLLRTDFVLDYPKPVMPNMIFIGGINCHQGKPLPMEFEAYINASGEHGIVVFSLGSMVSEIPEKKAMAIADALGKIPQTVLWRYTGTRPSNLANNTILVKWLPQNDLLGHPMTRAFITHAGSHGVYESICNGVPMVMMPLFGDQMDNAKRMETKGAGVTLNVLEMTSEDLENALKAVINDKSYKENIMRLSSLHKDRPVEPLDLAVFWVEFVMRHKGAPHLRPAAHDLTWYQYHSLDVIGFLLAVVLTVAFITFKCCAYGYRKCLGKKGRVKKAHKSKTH

UGT1A6 = biological target: T2, UGT1A6 (Homo sapiens, UniProt P19224); test: SAHA glucuronidation screen, UGT1A6-overexpressing cell homogenate
T2 sequence (P19224 27-532): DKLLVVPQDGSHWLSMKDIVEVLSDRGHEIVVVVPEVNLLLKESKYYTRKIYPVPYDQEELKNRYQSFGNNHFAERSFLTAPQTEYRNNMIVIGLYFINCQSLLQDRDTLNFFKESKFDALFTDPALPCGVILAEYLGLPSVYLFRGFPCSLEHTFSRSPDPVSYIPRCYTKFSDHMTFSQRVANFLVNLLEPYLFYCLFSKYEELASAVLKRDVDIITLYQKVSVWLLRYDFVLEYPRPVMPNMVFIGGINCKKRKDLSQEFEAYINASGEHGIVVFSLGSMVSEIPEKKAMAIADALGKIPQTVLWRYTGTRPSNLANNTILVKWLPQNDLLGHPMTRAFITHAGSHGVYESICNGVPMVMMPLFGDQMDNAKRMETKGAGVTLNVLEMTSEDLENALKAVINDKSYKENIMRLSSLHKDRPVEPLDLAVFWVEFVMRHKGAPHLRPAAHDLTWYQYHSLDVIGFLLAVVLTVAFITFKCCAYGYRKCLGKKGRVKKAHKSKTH

[1] = biological target: T3, UGT1A8*2 (UGT1A8p.Ala173Gly) (Homo sapiens, UniProt Q9HAW9, A173G); test: SAHA glucuronidation, UGT1A8*2 variant cell homogenate
T3 sequence (Q9HAW9 26-530 A173G): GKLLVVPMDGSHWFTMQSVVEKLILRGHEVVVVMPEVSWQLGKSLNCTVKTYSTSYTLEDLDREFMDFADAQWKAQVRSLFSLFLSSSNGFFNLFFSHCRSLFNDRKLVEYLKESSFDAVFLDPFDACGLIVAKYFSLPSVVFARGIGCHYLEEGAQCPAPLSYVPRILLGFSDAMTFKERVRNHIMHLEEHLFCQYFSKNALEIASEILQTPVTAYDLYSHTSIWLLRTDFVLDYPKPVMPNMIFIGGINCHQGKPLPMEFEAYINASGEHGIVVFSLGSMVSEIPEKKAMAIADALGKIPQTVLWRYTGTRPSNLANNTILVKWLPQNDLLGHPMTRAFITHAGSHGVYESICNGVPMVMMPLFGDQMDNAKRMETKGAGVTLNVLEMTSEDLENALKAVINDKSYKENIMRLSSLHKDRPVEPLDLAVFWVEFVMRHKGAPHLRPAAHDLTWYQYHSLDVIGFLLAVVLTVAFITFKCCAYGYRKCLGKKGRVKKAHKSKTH

UGT1A4 = biological target: T4, UGT1A4 (Homo sapiens, UniProt P22310); test: SAHA glucuronidation screen, UGT1A4-overexpressing cell homogenate
T4 sequence (P22310 29-534): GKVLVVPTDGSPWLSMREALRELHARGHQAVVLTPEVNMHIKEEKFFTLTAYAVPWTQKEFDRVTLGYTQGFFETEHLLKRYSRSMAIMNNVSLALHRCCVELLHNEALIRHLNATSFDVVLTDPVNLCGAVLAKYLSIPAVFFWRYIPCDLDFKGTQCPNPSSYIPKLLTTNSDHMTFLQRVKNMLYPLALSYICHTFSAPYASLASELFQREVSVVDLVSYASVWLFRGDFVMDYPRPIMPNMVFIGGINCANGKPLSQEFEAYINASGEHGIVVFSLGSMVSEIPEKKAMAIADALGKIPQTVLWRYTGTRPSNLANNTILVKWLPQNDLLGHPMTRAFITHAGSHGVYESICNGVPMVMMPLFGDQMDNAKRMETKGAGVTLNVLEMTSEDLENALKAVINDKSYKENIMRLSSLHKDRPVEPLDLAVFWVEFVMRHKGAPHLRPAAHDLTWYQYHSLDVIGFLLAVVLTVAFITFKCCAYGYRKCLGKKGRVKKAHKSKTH

UGT2B17 = biological target: T5, UGT2B17 (Homo sapiens, UniProt O75795); test: SAHA glucuronidation, UGT2B17-overexpressing HEK293 cell homogenate
T5 sequence (O75795 24-530): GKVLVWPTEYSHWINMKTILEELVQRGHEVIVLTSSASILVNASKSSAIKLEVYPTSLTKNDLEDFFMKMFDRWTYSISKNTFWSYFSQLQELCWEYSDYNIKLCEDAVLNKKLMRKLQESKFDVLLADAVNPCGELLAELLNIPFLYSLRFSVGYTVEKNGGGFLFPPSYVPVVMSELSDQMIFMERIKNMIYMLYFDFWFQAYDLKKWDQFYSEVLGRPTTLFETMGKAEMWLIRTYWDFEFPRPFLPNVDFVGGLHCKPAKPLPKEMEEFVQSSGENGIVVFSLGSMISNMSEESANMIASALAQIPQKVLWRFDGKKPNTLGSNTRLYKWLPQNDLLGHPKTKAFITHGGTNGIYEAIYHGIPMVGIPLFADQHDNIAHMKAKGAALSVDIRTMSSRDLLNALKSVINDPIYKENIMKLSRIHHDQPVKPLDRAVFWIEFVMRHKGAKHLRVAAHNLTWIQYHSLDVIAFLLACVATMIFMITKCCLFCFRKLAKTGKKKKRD

[2] = 400 μg UGT-overexpressing cell homogenate, 1-h incubation

O=C(CCCCCCC(=O)Nc1ccccc1)NO [SAHA, Suberoylanilide hydroxamic acid]
glucuronidation against SAHA (screen) (UGT1A9; [2]): high levels of glucuronidation | Km at 1 h (UGT1A9; human, UGT1A9-overexpressing HEK293 cell homogenate, pH 7.5): 1600 ± 500 µM | glucuronidation against SAHA (UGT1A6; [2]): detectable levels of glucuronidation | Km at 1 h (UGT1A6; human, UGT1A6-overexpressing cell homogenate, pH 7.5): > 8000 µM | decrease in glucuronidation activity against SAHA compared with wild-type UGT1A8 ([1]; UGT1A8p.Ala173Gly variant, P < 0.005): 3 fold | Km at 1 h ([1]; human, UGT1A8*2 variant-overexpressing cell homogenate, pH 7.5): 3000 ± 700 µM | glucuronidation against SAHA (UGT1A4; [2]): detectable levels of glucuronidation | Km at 1 h (UGT1A4; human, UGT1A4-overexpressing cell homogenate, pH 7.5): > 8000 µM | glucuronidation against SAHA (screen) (UGT2B17; [2]): high levels of glucuronidation | apparent KM of UGT2B17 lower than that of UGT1A3 (UGT2B17; against SAHA): 11 fold | apparent KM of UGT2B17 lower than that of UGT1A9 (UGT2B17; against SAHA): 5 fold | higher level of glucuronidation activity (Vmax/KM) of UGT2B17 compared with UGT1A3 (UGT2B17; against SAHA): 9.4 fold | higher level of glucuronidation activity (Vmax/KM) of UGT2B17 compared with UGT1A9 (UGT2B17; against SAHA): 2.3 fold | Km at 1 h (UGT2B17; human, UGT2B17-overexpressing HEK293 cell homogenate, pH 7.5): 300 ± 100 µM
